# From US9834558B2, “Substituted bridged urea analogs as sirtuin modulators” (GLAXOSMITHKLINE LLC, priority 2013, dated 2017)
# Like-named read-outs stand apart in the source and are kept apart here.
# Biological target: T1, SIRT1 (Homo sapiens, UniProt Q96EB6)
# T1 sequence (Q96EB6 1-747): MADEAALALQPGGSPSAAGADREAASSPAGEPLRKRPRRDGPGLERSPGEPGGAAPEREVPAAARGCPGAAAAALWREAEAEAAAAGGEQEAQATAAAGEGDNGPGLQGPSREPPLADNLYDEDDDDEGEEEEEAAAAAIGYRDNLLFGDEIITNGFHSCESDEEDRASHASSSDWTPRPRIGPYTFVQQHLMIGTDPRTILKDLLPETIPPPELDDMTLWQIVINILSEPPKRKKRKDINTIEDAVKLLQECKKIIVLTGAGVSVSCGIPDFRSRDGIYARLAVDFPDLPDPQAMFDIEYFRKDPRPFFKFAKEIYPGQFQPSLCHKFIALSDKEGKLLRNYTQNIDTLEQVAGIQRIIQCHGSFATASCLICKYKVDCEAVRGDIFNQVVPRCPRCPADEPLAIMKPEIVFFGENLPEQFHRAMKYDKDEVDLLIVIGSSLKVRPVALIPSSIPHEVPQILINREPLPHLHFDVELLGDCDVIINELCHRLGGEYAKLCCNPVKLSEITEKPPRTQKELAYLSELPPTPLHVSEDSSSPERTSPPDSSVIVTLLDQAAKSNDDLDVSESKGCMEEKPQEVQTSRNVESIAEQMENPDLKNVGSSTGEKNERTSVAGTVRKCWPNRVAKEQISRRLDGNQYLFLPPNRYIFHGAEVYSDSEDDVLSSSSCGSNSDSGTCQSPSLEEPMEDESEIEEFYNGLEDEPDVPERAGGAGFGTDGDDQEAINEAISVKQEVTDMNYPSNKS
# Test: Trp mass spectrometry assay of SIRT1 activation
# Assay type: biochemical
# Details: for TRP Activity (EC1.5): EC1.5 = concentration that results in 150% activation of SIRT1; for Emax: read-out: TRP MAX RESP (percent maximum fold activation)
# How it was run: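 N-terminal His-tagged human SIRT1 (10 nM, E. coli BL21(DE3)) with 0.5 μM Ac-RHKK(Ac)W-NH2 peptide and 120 μM βNAD+, 25 min at 25 °C in HEPES pH 7.5, formic acid stop. OAADPR or deacetylated peptide quantified by mass spectrometry; EC1.5 (50% activity increase over control) and Percent Maximum Activation reported.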
# [1] = Trp peptide assay, maximum activity relative to control (100%)
# [2] = concentration giving 150% activation of SIRT1, Trp peptide substrate
# [3] = Trp mass spectrometry assay, EC1.5 = concentration of test compound that results in 150% activation of SIRT1
# [4] = Trp mass spectrometry assay, concentration of test compound giving 150% activation of SIRT1
TRP Activity (EC1.5) (Trp peptide assay),Tryp AVG EC1.5 (μM) [3],SMILES,also measured
C (C (EC1.5>25 μM)),–,"Cc1cc(-c2ccc3c(n2)N(C(=O)N[C@@H](C)c2ccccn2)[C@H]2CCN3C2)ccn1 [(9S)-5-(2-methylpyridin-4-yl)-N-[(1S)-1-(pyridin-2-yl)ethyl]-1,6,8-triazatricyclo[7.2.1.0 {2,7}]dodeca-2,4,6-triene-8-carboxamide]",Emax [1]: < 150%
–,–,NCCCc1ccc(NC(=O)N2c3nc(-c4cccc(C(F)(F)F)c4)ccc3N3CC[C@H]2C3)cc1-c1cnco1 [Example 765],Tryp AVG EC1.5 (μM) [2]: A (A (EC1.5<1 μM))
–,–,CC(C)(C)OC(=O)NCc1cnnn1-c1cccc(NC(=O)N2c3nc(-c4cccc(C(F)(F)F)c4)ccc3N3CC[C@H]2C3)c1 [Example 638],Tryp AVG EC1.5 (μM) [2]: A (A (EC1.5<1 μM))
–,B (B (EC1.5 1-25 μM)),O=C(Nc1cnccn1)N1c2nc(-c3cncc(F)c3)ccc2N2CCC[C@H]1C2 [Example 432],–
–,–,NCc1ncc(-c2cccc(NC(=O)N3c4nc(-c5cccc(C(F)(F)F)c5)ccc4N4CC[C@H]3C4)c2)o1 [Example 725],Tryp AVG EC1.5 (μM) [2]: A (A (EC1.5<1 μM))
B (B (EC1.5 1-25 μM)),–,"Cc1ncc(-c2ccc3c(n2)N(C(=O)Nc2cnccn2)[C@H]2CCN3C2)s1 [(9S)-5-(2-methyl-1,3-thiazol-5-yl)-N-(pyrazin-2-yl)-1,6,8-triazatricyclo[7.2.1.0 {2,7}]dodeca-2(7),3,5-triene-8-carboxamide]",Emax [1]: > 150%
–,C (C (EC1.5>25 μM)),Cc1ccncc1-c1ccc2c(n1)N(C(=O)Nc1nc(C)c(C)s1)[C@H]1CCCN2C1 [Example 508],–
–,–,Cc1nc(NC(=O)N2c3nc(-c4cccc(N(C)C)c4)ccc3N3CCC[C@H]2C3)sc1C [Example 383],Tryp AVG EC1.5 (μM) [4]: A (A (EC1.5<1 μM))
B (B (EC1.5 1-25 μM)),–,"C[C@H]1CN(c2ccc3c(n2)N(C(=O)Nc2cnccn2)[C@H]2CCN3C2)CCO1 [(9S)-5-[(2S)-2-methylmorpholin-4-yl]-N-(pyrazin-2-yl)-1,6,8-triazatricyclo[7.2.1.0 {2,7}]dodeca-2,4,6-triene-8-carboxamide]",Emax [1]: > 150%
–,–,CCCC(=O)c1cccc(NC(=O)N2c3nc(-c4cccc(C(F)(F)F)c4)ccc3N3CC[C@H]2C3)c1 [Example 736],Tryp AVG EC1.5 (μM) [2]: A (A (EC1.5<1 μM))
C (C (EC1.5>25 μM)),–,"O=C(O)c1cc(-c2ccc3c(n2)N(C(=O)Nc2cnccn2)[C@H]2CCN3C2)ccn1 [4-[(9S)-8-[(pyrazin-2-yl)carbamoyl]-1,6,8-triazatricyclo[7.2.1.0 {2,7}]dodeca-2(7),3,5-trien-5-yl]pyridine-2-carboxylic acid]",Emax [1]: < 150%
–,A (A (EC1.5<1 μM)),O=C(Nc1ccc(F)cn1)N1c2nc(-c3ccnc(N4CC[C@H](F)C4)c3)ccc2N2CC[C@H]1C2 [Example 463],–
–,–,O=C(Nc1cccc(OC[C@H](O)CO)n1)N1c2nc(-c3cccc(C(F)(F)F)c3)ccc2N2CC[C@H]1C2 [Example 819],Tryp AVG EC1.5 (μM) [2]: A (A (EC1.5<1 μM))
–,B (B (EC1.5 1-25 μM)),Cc1ccc(-c2ccc3c(n2)N(C(=O)Nc2cccnc2)[C@H]2CCCN3C2)cn1 [Example 514],–
A (A (EC1.5<1 μM)),–,"O=C(Nc1cnccn1)N1c2nc(N3CCO[C@H](C(F)(F)F)C3)ccc2N2CC[C@H]1C2 [drawing 1227, (9S)-N-(pyrazin-2-yl)-5-[(2S)-2-(trifluoromethyl)morpholin-4-yl]-1,6,8-triazatricyclo[7.2.1.0 {2,7}]dodeca-2(7),3,5-triene-8-carboxamide]",TRP MAX RESP (percent maximum fold activation) [1]: A (A (Fold activation ≧150%))
A (A (EC1.5<1 μM)),–,"O=C(Nc1ccccn1)N1c2nc(-c3ccnc(C(F)(F)F)c3)ccc2N2CCC[C@H]1C2 [(9S)-N-(pyridin-2-yl)-5-[2-(trifluoromethyl)pyridin-4-yl]-1,6,8-triazatricyclo[7.3.1.0 {2,7}]trideca-2(7),3,5-triene-8-carboxamide]",Emax [1]: > 150%
–,–,CN(C)c1cccc(-c2ccc3c(n2)N(C(=O)Nc2cnccn2)[C@H]2CCCN3C2)c1 [Example 403],Tryp AVG EC1.5 (μM) [4]: A (A (EC1.5<1 μM))
A (A (EC1.5<1 μM)),–,"Cc1cc(-c2ccc3c(n2)N(C(=O)Nc2cccc4nccnc24)[C@H]2CCN3C2)ccn1 [(9S)-5-(2-methylpyridin-4-yl)-N-(quinoxalin-5-yl)-1,6,8-triazatricyclo[7.2.1.0 {2,7}]dodeca-2,4,6-triene-8-carboxamide]",Emax [1]: > 150%

TRP Activity (EC1.5) (Trp peptide assay),Tryp AVG EC1.5 (μM) [3],SMILES,also measured
B (B (EC1.5 1-25 μM)),–,"CC[C@@H]1CN(c2ccc3c(n2)N(C(=O)Nc2cnccn2)[C@H]2CCN3C2)CCO1 [(9S)-5-[(2R)-2-ethylmorpholin-4-yl]-N-(pyrazin-2-yl)-1,6,8-triazatricyclo[7.2.1.0^{2,7}]dodeca-2(7),3,5-triene-8-carboxamide]",Emax [1]: > 150%
–,A (A (EC1.5<1 μM)),O=C(Nc1ccccn1)N1c2nc(-c3cncc(F)c3)ccc2N2CCC[C@H]1C2 [Example 470],–
–,–,C#Cc1ccc(NC(=O)N2c3nc(-c4ccc(C5(C(F)(F)F)N=N5)cc4)ccc3N3CC[C@H]2C3)nc1 [Example 807],Tryp AVG EC1.5 (μM) [2]: C (C (EC1.5>25 μM))
–,–,O=C(Nc1cc(-c2cnco2)ccn1)N1c2nc(-c3cccc(C(F)(F)F)c3)ccc2N2C[C@@H](O)[C@H]1C2 [Example 662],Tryp AVG EC1.5 (μM) [2]: B (B (EC1.5 1-25 μM))
–,–,Cc1nccn1CCCNC(=O)N1c2nc(-c3cccc(C(F)(F)F)c3)ccc2N2CC[C@H]1C2 [Example 632],Tryp AVG EC1.5 (μM) [2]: C (C (EC1.5>25 μM))
–,B (B (EC1.5 1-25 μM)),COc1cc(NC(=O)N2c3nc(-c4cncc(F)c4)ccc3N3CCC2CC3)nc(OC)n1 [Example 578],–
A (A (EC1.5<1 μM)),–,"O=C(Nc1cnccn1)N1c2nc(-c3ccnc(C(F)F)c3)ccc2N2CC[C@H]1C2 [(9S)-5-[2-(difluoromethyl)pyridin-4-yl]-N-(pyrazin-2-yl)-1,6,8-triazatricyclo[7.2.1.0 {2,7}]dodeca-2(7),3,5-triene-8-carboxamide]",Emax [1]: > 150%
B (B (EC1.5 1-25 μM)),–,Cc1cc(-c2ccc3c(n2)N(C(=O)Nc2cnccn2)[C@H]2CCN3C2)cnn1,Emax [1]: > 150%
B (B (EC1.5 1-25 μM)),–,"Cc1cc(-c2ccc3c(n2)N(C(=O)Nc2cn(C)nn2)[C@H]2CCN3C2)ccn1 [(9S)-N-(1-methyl-1H-1,2,3-triazol-4-yl)-5-(2-methylpyridin-4-yl)-1,6,8-triazatricyclo[7.2.1.0^{2,7}]dodeca-2(7),3,5-triene-8-carboxamide]",Emax [1]: > 150%
–,B (B (EC1.5 1-25 μM)),Cc1nc(NC(=O)N2c3nc(-c4cccc(Cl)c4)ccc3N3CCC2CC3)sc1C [Example 569],–
–,B (B (EC1.5 1-25 μM)),Cn1nccc1-c1ccc2c(n1)N(C(=O)Nc1cccnc1)[C@H]1CCN2C1 [Example 524],–
–,B (B (EC1.5 1-25 μM)),N#Cc1ccccc1-c1ccc2c(n1)N(C(=O)Nc1cccnn1)[C@H]1CCCN2C1 [Example 426],–
–,–,O=C(Nc1cccc(-c2cnco2)c1)N1c2nc(N3CCC[C@H](C(F)(F)F)C3)ccc2N2CC[C@H]1C2 [Example 718],Tryp AVG EC1.5 (μM) [2]: A (A (EC1.5<1 μM))
B (B (EC1.5 1-25 μM)),–,"O=C(Nc1ccccn1)N1c2nc(N3CC[C@H](C(F)(F)F)C3)ccc2N2CCC[C@H]1C2 [drawing 1101, (9S)-N-(pyridin-2-yl)-5-[(3S)-3-(trifluoromethyl)pyrrolidin-1-yl]-1,6,8-triazatricyclo[7.3.1.0 {2,7}]trideca-2(7),3,5-triene-8-carboxamide]",–
–,A (A (EC1.5<1 μM)),Cn1nccc1-c1cccc(NC(=O)N2c3nc(-c4cccc(C(F)(F)F)c4)ccc3N3CC[C@H]2C3)n1 [Example 623],–
–,A (A (EC1.5<1 μM)),O=C(Nc1ccc(F)cn1)N1c2nc(-c3cncc(F)c3)ccc2N2CCC[C@H]1C2 [Example 431],–
B (B (EC1.5 1-25 μM)),–,"Cc1cc(-c2ccc3c(n2)N(C(=O)Nc2nccc4nccnc24)[C@H]2CCN3C2)ccn1 [(9S)-5-(2-methylpyridin-4-yl)-N-{pyrido[3,4-b]pyrazin-5-yl}-1,6,8-triazatricyclo[7.2.1.0 {2,7}]dodeca-2,4,6-triene-8-carboxamide]",Emax [1]: > 150%
–,A (A (EC1.5<1 μM)),COc1cc(NC(=O)N2c3nc(-c4cccc(Cl)c4)ccc3N3CCC2CC3)nc(OC)n1 [Example 523],–

SMILES,TRP Activity (EC1.5) (Trp peptide assay),Tryp AVG EC1.5 (μM) [3],also measured
"O=C(NC1CC1)c1ccc2c(n1)N(C(=O)Nc1ccccn1)[C@H]1CCN2C1 [(9S)-5-N-cyclopropyl-8-N-(pyridin-2-yl)-1,6,8-triazatricyclo[7.2.1.0^{2,7}]dodeca-2(7),3,5-triene-5,8-dicarboxamide]",A (A (EC1.5<1 μM)),–,Emax: > 150%
